Here are results for 16 molecules from ChEMBL document CHEMBL4680144, “N-thiadiazole-4-hydroxy-2-quinolone-3-carboxamides bearing heteroaromatic rings as novel antibacterial agents: Design, synthesis, biological evaluation and target identification” (Eur J Med Chem, 2020).

Converted amounts (≈) assume the structure as drawn.

In assay [1] the test system is Staphylococcus aureus. As to the kind of experiment: Antibacterial activity against wild type methicillin-sensitive Staphylococcus aureus ATCC 29213 assessed as inhibition of bacterial growth incubated for 18 to 24 hrs by broth microdilution method. Type of assay: functional. Particulars: time 18-24 hrs.
Assay [2] is described as follows: Inhibition of Staphylococcus aureus Gyrase B using linear pBR322 DNA as substrate incubated for 30 mins in presence of ATP by ADP-Glo assay.

For `CCn1c(=O)c(C(=O)Nc2nnc(C3CCCCC3)s2)c(O)c2ccccc21`, the MIC in assay [1] was 12.5 µg/mL (≈ 31.4 µM). In addition, in assay [2], the IC50 came out at 550 nM.
`CCCCCCc1nnc(NC(=O)c2c(O)c3ccccc3n(CC)c2=O)s1`: the MIC in assay [1] turned out to be 12.5 µg/mL (≈ 31.2 µM). For the same molecule, the IC50 in assay [2] is 350 nM.
For `CCn1c(=O)c(C(=O)Nc2nnc(-c3ccc(N(C)C)cc3)s2)c(O)c2ccccc21`, in that order: 3.12 µg/mL (≈ 7.16 µM) and 2660 nM.
Regarding `CCn1c(=O)c(C(=O)Nc2nnc(C3CC3)s2)c(O)c2ccccc21`, the MIC in assay [1] worked out at 3.12 µg/mL (≈ 8.75 µM). The IC50 in assay [2] is 580 nM.
For the molecule `CCOc1ccccc1-c1nnc(NC(=O)c2c(O)c3ccccc3n(CC)c2=O)s1`, in assay [1], the minimum inhibitory concentration (MIC) was found to be 12.5 µg/mL (≈ 28.6 µM). Also, the IC50 in assay [2] amounted to 2350 nM.
With `CCn1c(=O)c(C(=O)Nc2nnc(-c3cccc(OC)c3)s2)c(O)c2ccccc21`, the MIC in assay [1] is 1.56 µg/mL (≈ 3.69 µM). Also, in assay [2], the IC50 is 2170 nM.
Take `CCn1c(=O)c(C(=O)Nc2nnc(-c3ccc(F)cc3)s2)c(O)c2ccccc21`: in assay [1], the MIC came to 25 µg/mL (≈ 60.9 µM). In assay [2], the IC50 is 2300 nM.
For `CCn1c(=O)c(C(=O)Nc2nnc(C3CCCC3)s2)c(O)c2ccccc21`, in that order: 6.25 µg/mL (≈ 16.3 µM) and 550 nM.
As for `CCn1c(=O)c(C(=O)Nc2nnc(-c3ccc(Cl)cc3)s2)c(O)c2ccccc21`, the minimal inhibitory concentration (MIC) in assay [1] worked out at 12.5 µg/mL (≈ 29.3 µM). Moreover, the IC50 in assay [2] stood at 1460 nM.
In the same order, the values of `CCn1c(=O)c(C(=O)Nc2nnc(-c3ccc(OC)cc3)s2)c(O)c2ccccc21` are 3.12 µg/mL (≈ 7.39 µM) and 1140 nM.
For `CCn1c(=O)c(C(=O)Nc2nnc(-c3ccn(C)n3)s2)c(O)c2ccccc21`, in that order: 3.12 µg/mL (≈ 7.87 µM) and 490 nM.
For `CCCn1c(=O)c(C(=O)Nc2nncs2)c(O)c2ccccc21`, in assay [1], the MIC was 3.12 µg/mL (≈ 9.44 µM). In assay [2], the half-inhibitory concentration (IC50) came out at 460 nM.
In the case of `CCn1c(=O)c(C(=O)Nc2nnc(-c3ccc([N+](=O)[O-])cc3)s2)c(O)c2ccccc21`, in assay [1], the minimal inhibitory concentration (MIC) was 50 µg/mL (≈ 114 µM). Also, the IC50 in assay [2] was determined as 1610 nM.
For `CCn1c(=O)c(C(=O)Nc2nnc(-c3cccc(F)c3)s2)c(O)c2ccccc21`, in that order: 6.25 µg/mL (≈ 15.2 µM) and 1810 nM.
On to `CCn1c(=O)c(C(=O)Nc2nnc(-c3ccc(Br)cc3)s2)c(O)c2ccccc21`, for which, in assay [1], the MIC stood at 12.5 µg/mL (≈ 26.5 µM). In addition, the IC50 in assay [2] turned out to be 2190 nM.
As to `CCOc1ccc(-c2nnc(NC(=O)c3c(O)c4ccccc4n(CC)c3=O)s2)cc1`, in assay [1], the MIC was 100 µg/mL (≈ 229 µM). Moreover, the half-inhibitory concentration (IC50) in assay [2] was 2300 nM.
